{"source": "paper PMC10704561", "about": "“Multi-Photon-Sensitive Chromophore for the Photorelease of Biologically Active Phenols” (ACS Chemical Neuroscience, 2023)", "key": {"[1]": {"assay": "One-photon excitation (1PE) photolysis with 365 nm LED, HPLC quantification", "assay_type": "physicochemical", "settings": "for t90% (time required to consume 90% of the starting material): 1PE 365 nm LED, lamp intensity differs per compound (Table S1)", "experimental": "A 0.1 mM solution (3 mL) of each protected phenol in KMOPS buffer (10 or 20% CH3CN was used as a cosolvent for 3d and 6c) was placed in a 3 mL quartz cuvette along with a stirring bar. The solution was irradiated with stirring using a 365 nm LED lamp (Cairn OptoLED Lite). At different time intervals, 80 μL aliquots of the solution were taken out and analyzed by uHPLC (Agilent 1290 Infinity series), monitoring the AUC at 320 nm (Supporting Information, HPLC Data). An external standard calibration method of quantification was used for the calibration of the samples. The experiments were repeated in sets of three. A gradient elution with a flux rate of 0.3 mL/min using a mobile phase comprising A = 0.1% trifluoroacetic acid in water and B = acetonitrile (starting from 5% B to 100% over 10 min and re-equilibrating to 5% B before the next run) was used for the separations. A comparison of the AUC with the calibration curves of the substrates (obtained from known concentration) determined the percentages of the remaining starting materials. The percentages of the remaining starting materials were plotted versus time. The time to 90% of decomposition of the substrate (t90% values) was obtained by fitting a single exponential decay curve to the data using DeltaGraph (Red Rock Software). The following equation was used to calculate the quantum yield (Φu) of each photolysis reaction:[42],[47],[56],[57] Φu = (I σ t90%)^−1, where I is the irradiation intensity (determined by potassium ferrioxalate actinometry and measured in Einstein cm^–2 s^–1),[58] σ is the decadic extinction coefficient (1000 × ε) at 365 nm, and t90% is the time required to consume 90% of the starting material. See Supporting Information Table S1 for the I, σ, and t90% data."}, "[2]": {"assay": "Solubility in KMOPS buffer pH 7.2", "assay_type": "physicochemical", "settings": "aqueous buffer; KMOPS buffer, pH 7.2; read-out: solubility", "source_text": "The photochemical and photophysical properties were investigated in a simulated physiological buffer (KMOPS, pH 7.2) and compared with the literature data for CyHQ-O-DA (Table 1). […] For this derivative, 10% CH3CN in the buffer was used to ensure complete solubilization for the photochemistry experiments. The spontaneous hydrolysis in the dark was monitored over a period of 7 days and no significant hydrolysis was detected for any of the constructs. The molar absorptivity at the wavelength used for 1PE photolysis (ε365) ranged between 4800 and 5670 M^–1 cm^–1, in line with the values of most CyHQ-based PPGs.\nThe photochemical behavior of constructs 4–7c was investigated in KMOPS buffer at the concentration of 0.1 mM. Under these conditions, all compounds were soluble except for the VNA analogue 6c, which, because of the lipophilicity of the vanilloid, required 20% CH3CN for full solubilization. The stability toward hydrolysis in the dark was monitored over a week, and no significant decomposition was detected for any probe. All constructs were successfully photolyzed after light exposure, as shown in the time courses of the photolysis reactions (Figure 3). MeO-CyHQ constructs 4c, 6c, and 7c were photoactivated with excellent quantum efficiency and sensitivities, and good chemical yields were obtained by monitoring the appearance of the released bioeffector over the time course of the photoreaction (Table 1). […] We believe this effect is due to the presence of the thiophene ring, a well-known photoactive group,[51] which could act as an energy sink in the excited state and quench the photochemical reaction."}, "[3]": {"assay": "UV-vis spectra and molar extinction coefficient in KMOPS buffer", "assay_type": "physicochemical", "settings": "0.1 mM in KMOPS buffer, pH 7.2 (3d, 6c: 10 or 20% CH3CN added)", "experimental": "A 100 μM solution of each protected phenol was prepared in KMOPS buffer (20% CH3CN was used as a cosolvent for compounds 3d and 6c). The UV–vis spectra of these solutions were recorded at between 250 and 500 nm. All of the measurements were repeated in triplicate, and the absorbance values were averaged. The Beer–Lambert law, ε = A(cl)^−1, was used for the calculation of ε values at λ = 365 nm, where A is the absorbance value measured at 365 nm, c is the concentration of the sample, and l is the cuvette length (1 cm). See the Supporting Information for the spectra."}, "dLight 1.2": {"tested_on": "dLight 1.2", "assay": "Activation of dLight 1.2 on HCT 116 cells by photoreleased dopamine", "assay_type": "cell-based", "settings": "for dLight 1.2 response after photoactivation (1PE): 10 μM", "experimental": "(§1) HCT 116 cells were grown in Dulbecco’s […] medium (DMEM) supplemented with 10% fetal bovine serum (FBS), 1% nonessential amino acids (NEAA), and maintained at 37 °C and 5% CO2. HEK 293 cells stably expressing TRPV1 channels were grown as previously described.[62]\n(§2) An Olympus FluoView FV1000MPE confocal microscope was employed to image and record cells plated onto 35 mm glass-bottom 4-well plates. A 488 nm ion laser excited the dopamine and serotonin sensors dLight 1.2 and GRAB5-HT, respectively, and Fluo-4 calcium dye. FluoView 10-ASW version 4.0 (Olympus), ImageJ-Fiji, and DeltaGraph (Red Rock Software) were used for capturing, extracting, and processing the collected data. Photoactivation was conducted with 405 nm (100% laser power, 1PE) or 720 nm (10% laser power, 24 mW, 2PE) light for MeO-CyHQ-O-DA and MeO-CyHQ-O-5HT or 740 nm (20% laser power, 15 mW light) for MeO-CyHQ-O-VNA and MeO-CyHQ-O-EG. Images were captured by using a 60× immersion lens.\n(§3) HCT 116 cells were grown to 70% confluency on specialized glass-bottom plates for imaging. After 24 h, the cells were transfected (70% efficiency) with either dLight 1.2 or GRAB5-HT. Before imaging, the DMEM was discarded and the cells were washed twice with HBSS. HBSS (500 μL) was added per well for imaging. DMSO was used to dissolve the compounds CyHQ-O-DA, MeO-CyHQ-O-DA, and MeO-CyHQ-O-5HT to make 1 mM stock solutions. These were then added to the wells to obtain the desired final concentrations, keeping the DMSO concentration to less than 1%, which is tolerated by the cells. Control experiments included optimization of the response of the dLight 1.2 and GRAB5-HT sensors to the release of dopamine and serotonin, respectively, through exposure to different concentrations of CyHQ-O-DA, MeO-CyHQ-O-DA, and MeO-CyHQ-O-5HT at different durations of 405 nm light. Optimizations were conducted in a similar manner for activation through 2PE. Light dose–response curves were generated by applying a 405 nm light pulse for 1, 10, 50, 100, 200, 300, 400, 500, 600, 750, and 1000 ms at 50 frame intervals for CyHQ-O-DA, MeO-CyHQ-O-DA, and MeO-CyHQ-O-5HT."}, "[4]": {"assay": "Spontaneous hydrolysis in the dark", "assay_type": "physicochemical", "settings": "0.1 mM in KMOPS pH 7.2, dark, 7 days", "experimental": "A 0.1 mM solution of each compound was prepared in KMOPS buffer. For compounds 3d and 6c, 20% CH3CN was used as a cosolvent. The solutions were kept in the dark for 7 days, and the percentage of the starting materials was determined by periodic HPLC analysis (Supporting Information, HPLC Data)."}, "GRAB5-HT": {"tested_on": "GRAB5-HT", "assay": "Activation of GRAB5-HT on HCT 116 cells by photoreleased serotonin", "assay_type": "cell-based", "experimental": "as §1, §2\nas §3, with “Light dose–response curves were generated by applying a 405 nm light pulse for 1, 10, 50, 100, 200, 300, 400, 500, 600, 750, and 1000 ms at 50 frame intervals for CyHQ-O-DA, MeO-CyHQ-O-DA, and MeO-CyHQ-O-5HT.” left out"}, "[5]": {"set-up": "method as in PMID 32077679", "settings": "cited from earlier work"}, "[6]": {"set-up": "method as in PMID 32077679", "settings": "KMOPS buffer, pH 7.2; cited from earlier work"}, "[7]": {"set-up": "method as in PMID 32077679", "settings": "KMOPS buffer, pH 7.2; cited from earlier work", "remark": "listed apart in the source"}}, "note": "Like-named read-outs stand apart in the source and are kept apart here."}
{"smiles": "COc1cc(COc2ccc(CCN)cc2O)nc2c(C#N)c(O)ccc12.O=C(O)C(F)(F)F", "note": "[3c, 2-(4-((8-Cyano-7-hydroxy-4-methoxyquinolin-2-yl)methoxy)-3-hydroxyphenyl)ethan-1-aminium 2,2,2-trifluoroacetate]", "values": [{"measurement": "t90% (time required to consume 90% of the starting material)", "setting": "[1]", "value": 25.4, "unit": "s"}, {"measurement": "irradiation time to complete the 1PE photolysis reaction", "setting": "[1]; 365 nm", "value": "less than 1 min"}, {"measurement": "solubility", "setting": "[2]", "value": "> 100", "unit": "µM"}, {"measurement": "ε365", "setting": "[3]", "value": 5670, "unit": "M^–1 cm^–1"}, {"measurement": "λmax", "setting": "[3]", "value": 354, "unit": "nm"}, {"measurement": "dLight 1.2 response after photoactivation (1PE)", "setting": "dLight 1.2; 10 ms flash of 405 nm light", "value": "robust response"}, {"measurement": "dLight 1.2 response after photoactivation (2PE)", "setting": "dLight 1.2; 100 μM, 200 ms flash of 720 nm light", "value": "activated dLight 1.2"}, {"measurement": "τd (time constant of spontaneous hydrolysis in buffer in the dark at room temperature)", "setting": "[4]", "value": "nh (No hydrolysis (<5% detected after 7 days))"}]}
{"smiles": "COc1cc(COc2ccc3[nH]cc(CCN)c3c2)nc2c(C#N)c(O)ccc12.O=C(O)C(F)(F)F", "note": "[4c, 2-(5-((8-Cyano-7-hydroxy-4-methoxyquinolin-2-yl)methoxy)-1H-indol-3-yl)ethan-1-aminium 2,2,2-trifluoroacetate]", "values": [{"measurement": "t90% (time required to consume 90% of the starting material)", "setting": "[1]", "value": 18.4, "unit": "s"}, {"measurement": "GRAB5-HT response after photoactivation (1PE)", "setting": "GRAB5-HT; 20 μM, 20 ms burst of 405 nm light", "value": "robust response"}, {"measurement": "GRAB5-HT response after photoactivation (2PE)", "setting": "GRAB5-HT; 200 μM, 200 ms pulse of 720 nm light", "value": "robust response"}, {"measurement": "light pulse duration at which the GRAB5-HT response plateaus", "setting": "GRAB5-HT; 405 nm (1PE), 20 μM", "value": "around 200 ms"}, {"measurement": "solubility", "setting": "[2]", "value": "> 100", "unit": "µM"}, {"measurement": "ε365", "setting": "[3]", "value": 5400, "unit": "M^–1 cm^–1"}, {"measurement": "λmax", "setting": "[3]", "value": 355, "unit": "nm"}, {"measurement": "τd (time constant of spontaneous hydrolysis in buffer in the dark at room temperature)", "setting": "[4]", "value": "nh (No hydrolysis (<5% detected after 7 days))"}]}
{"smiles": "N#Cc1c(O)ccc2ccc(COc3cc(CCN)ccc3O)nc12", "note": "[CyHQ-O-DA]", "values": [{"measurement": "τd (time constant of spontaneous hydrolysis in buffer in the dark at room temperature)", "setting": "[5]", "value": "nh ^g (No hydrolysis (<5% detected after 7 days))"}, {"measurement": "solubility", "setting": "[6]", "value": ">100", "unit": "µM"}, {"measurement": "ε365", "setting": "[7]", "value": 5300, "unit": "M^–1 cm^–1"}, {"measurement": "λmax", "setting": "[7]", "value": 365, "unit": "nm"}, {"measurement": "dLight 1.2 response after photoactivation (1PE)", "setting": "dLight 1.2; 405 nm light pulse", "value": "increase in fluorescence output"}]}
{"smiles": "NCCc1ccc(O)c(O)c1", "note": "[dopamine, reference compound]", "values": [{"measurement": "dLight 1.2 response to bulk addition", "setting": "dLight 1.2; 100 μM, no photoactivation", "value": "increase in fluorescence output"}]}
